Type in all cases: biochemical
Assay [1] has as its target T1, RecG (Thermotoga maritima, UniProt Q9WY48).
T1 construct: made in house
T1 sequence (Q9WY48 1-780): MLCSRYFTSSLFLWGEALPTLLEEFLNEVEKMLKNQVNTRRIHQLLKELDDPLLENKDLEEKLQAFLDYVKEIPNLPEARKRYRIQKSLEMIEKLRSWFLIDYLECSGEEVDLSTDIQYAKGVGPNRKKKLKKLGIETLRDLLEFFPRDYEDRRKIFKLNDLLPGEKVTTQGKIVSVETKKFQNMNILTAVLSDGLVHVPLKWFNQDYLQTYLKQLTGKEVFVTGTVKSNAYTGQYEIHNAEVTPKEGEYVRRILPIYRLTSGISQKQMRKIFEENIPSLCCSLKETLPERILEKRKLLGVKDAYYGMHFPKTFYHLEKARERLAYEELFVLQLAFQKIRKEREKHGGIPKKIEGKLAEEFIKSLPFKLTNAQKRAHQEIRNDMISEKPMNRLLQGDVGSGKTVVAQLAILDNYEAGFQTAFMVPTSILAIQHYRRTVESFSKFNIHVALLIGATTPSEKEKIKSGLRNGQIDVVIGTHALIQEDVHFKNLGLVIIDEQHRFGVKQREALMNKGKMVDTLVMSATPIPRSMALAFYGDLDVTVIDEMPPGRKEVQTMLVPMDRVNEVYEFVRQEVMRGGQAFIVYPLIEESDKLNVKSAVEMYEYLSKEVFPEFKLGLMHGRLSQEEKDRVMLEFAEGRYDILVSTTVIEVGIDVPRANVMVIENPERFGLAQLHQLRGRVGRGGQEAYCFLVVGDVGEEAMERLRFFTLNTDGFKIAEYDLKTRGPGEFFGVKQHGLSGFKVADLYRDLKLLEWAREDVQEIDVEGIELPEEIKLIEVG
In words: ATP hydrolysis during unwinding (phosphate biosensor, heparin trap). To be noted: 200 nM 4-strand complementary junction, 10 nM RecG, 200 µM ATP. How it is done: The rate of ATP hydrolysis and total ATP usage during unwinding were measured using the phosphate biosensor (Figure 8), following rapid mixing of ATP with the RecG⋅DNA complex. […] Heparin is a potent inhibitor of many helicases, mimicking the DNA substrate and binding tightly to the enzyme, once the latter dissociates from the DNA, and so prevents rebinding of the helicase to fresh DNA substrates. The initial, rapid phase, which represents unwinding of the first DNA junction, was unaffected by the presence of heparin. […] RecG will continue to hydrolyze ATP while bound to the DNA substrate.
Figure 8 ATP hydrolysis during unwinding 4-strand complementary junctions. Junctions of varying arm lengths (shown in b.p.) were used to measure the rate of ATP hydrolysis during unwinding. RecG was pre-incubated with junction and the reactions were initiated by rapid mixing with ATP and heparin. […]
The ATPase measurement was repeated with different lengths of lagging and leading strands, as used in the unwinding measurements, in the presence of heparin (Figure 8 main panel). […] The ATPase rate measured here is similar to the steady-state and hydrolysis rate constants measured in the above sections, supporting the idea that the ATP hydrolysis reaction is not greatly affected by the type of junction.

For a further assay, the target named is T2, RecG⋅DNA(A40:B40) (Thermotoga maritima, UniProt Q9WY48).
T2 construct: made in house
T2 sequence (Q9WY48 1-780): T1 sequence (Q9WY48 1-780)
In words: Single turnover mant fluorescence, excess RecG⋅DNA over mantATP. How it is done:
Extra information relating to changes in a single ATPase cycle can be obtained by mixing excess RecG⋅DNA(A40:B40) with mantATP (Figure 4A). […] The first change in fluorescence is presumably due to binding. After fitting to a double exponential, the observed rate constant for the initial change was linearly dependent on RecG concentration over the small range possible (0.5 µM –2.5 µM), limited by protein precipitation at higher concentrations. Due to the low concentrations, a hyperbolic dependence would not be observed. The observed rate constant of the second increase in fluorescence, 0.22 (±0.05) s^−1 (Figure 4A), was independent of RecG concentration. This second phase is likely to be due to the cleavage step, leading to the formation of bound mantADP.
Figure 4 Kinetic measurement of mantATP with excess of RecG and DNA: binding, hydrolysis and Pi release. The concentrations for all experiments were 0.5 µM mantATP, 2.5 µM RecG, 5 µM DNA (A40:B40) and 10 µM MDCC-PBP (for Pi measurement). All measurements were carried out at 20°C in the buffer described in Materials and Methods. (A) Time course of mant fluorescence (solid line), mantADP formation (circles) and Pi release (dashed line), measured as described in materials and methods. […] (B) Simulation of these time courses, based upon a global model for a single turnover of mantATP as described in the text. (C) The time course of mant fluorescence upon mixing 0.5 µM mantATP and 2.5 µM RecG with 5 µM DNA junction (A40:B40) after a first mixing of 5 µM RecG and 1 µM mantATP and aging for 1 s.
Stopped-flow experiments were performed in a HiTech SF61DX2 apparatus (TgK Scientific Ltd, Bradford-on-Avon, UK) with a mercury-xenon light source and HiTech KinetAsyst 3 or Kinetic Studio 1 software. For MDCC-PBP fluorescence, the excitation wavelength used was 436 nm and a 455 nm cut-off filter (Schott glass) used to collect emitted light. The signal was calibrated using known concentrations of Pi. The solutions contained the Pi mop, to minimize phosphate contamination and comprising 0.01 unit ml^−1 bacterial purine nucleoside phosphorylase and 200 µM 7-methylguanosine. For mant fluorescence, 366 nm was used to excite and a 400 nm cut-off filter (Schott glass) used to collect light. Measurements of Cy3 fluorescence used 547 nm excitation and a 570 nm cut-off filter. In experiments described, the quoted concentrations are those in the mixing chamber, except where stated. Data were fitted to theoretical curves using the HiTech software or Grafit.

Assay [2] deals with T1, RecG. The assay is described as follows: Phosphate-water oxygen exchange during hydrolysis. The conditions noted are these: 20°C, Table 2 summary.

Each structure is given as a SMILES string. Several values for one entry are separate records, joined by “and”; a condition that tells them apart may be missing. Equal values may be shown once.

On to `Nc1ncnc2c1ncn2[C@@H]1O[C@H](COP(=O)(O)OP(=O)(O)OP(=O)(O)O)[C@@H](O)[C@H]1O` [ATP], for which the “rate of ATP hydrolysis during unwinding phase” value at RecG [1] turned out to be 5.8 s⁻¹.
Turning to `CNc1ccccc1C(=O)O[C@H]1[C@@H](O)[C@H](n2cnc3c(N)ncnc32)O[C@@H]1COP(=O)(O)OP(=O)(O)OP(=O)(O)O` [mantATP, 2′(3′)-O-(N-methylanthraniloyl)ATP], at RecG⋅DNA(A40:B40) (0.5 µM mantATP, excess RecG⋅DNA, independent of RecG concentration), the “observed rate constant of the second increase in fluorescence” value was 0.22 (±0.05) s^−1. For the same compound, the “k +2 (cleavage step)” value at RecG⋅DNA(A40:B40) (20°C) was 0.2 s⁻¹ and 0.22 s⁻¹. Besides, at RecG⋅DNA(A40:B40) (excess RecG⋅DNA over mantATP), the “initial small increase in fluorescence as part of overall change” value is on record as around 20%. Besides, at RecG⋅DNA(A40:B40) (excess RecG⋅DNA(A40:B40)), the “fluorescence intensity increase of bound nucleotide relative to free nucleotide” value is on record as 1.5 fold. Besides, the “k −2 (reverse of cleavage)” value at RecG [2] is below 0.01 s⁻¹.

(Values after paper PMC3368886, “ATPase Cycle and DNA Unwinding Kinetics of RecG Helicase” (PLoS ONE, 2012).)
